In patent US6916918B2, “Human glandular kallikrein enhancer, vectors comprising the enhancer and methods of use thereof” (priority 1997, dated 2005):

These compounds were tested on LNCaP cells transfected with CN390 (assay: steroid hormone specificity of the 1.17-kb hKLK2 enhancer, luciferase reporter). Conditions: FIG. 14.
Type: cell-based, human
Method: To assess the androgen specificity of the hKLK2 enhancer, LNCaP cells transfected with CN390 (1.17-kb “full enhancer activity” hKLK2 enhancer/minimal hKLK2 promoter) were treated with various steroid hormones.

Row | SMILES | induction of luciferase activity by steroid hormone vs cells not treated with hormones
1 | C[C@]12CCC(=O)C[C@@H]1CC[C@@H]1[C@@H]2CC[C@]2(C)[C@@H](O)CC[C@@H]12 [DHT, dihydrotestosterone] | marked increases in luciferase activity
2 | C[C@@H]1C[C@H]2[C@@H]3CCC4=CC(=O)C=C[C@]4(C)[C@@]3(F)[C@@H](O)C[C@]2(C)[C@@]1(O)C(=O)CO [DEX] | little or no inducibility
3 | C[C@]1(O)CC[C@H]2[C@@H]3CCC4=CC(=O)CCC4=C3C=C[C@@]21C [R1881, methyl trienolone] | marked increases in luciferase activity
4 | CC/C(=C(/CC)c1ccc(O)cc1)c1ccc(O)cc1 [DES] | little or no inducibility
